In one test the test system is DLD-1 cells. In words: Colony formation assay, DLD-1. In kind it is cell-based, human. The settings on record: 10 µM, 7–12 days. The protocol:
(§1) Cells were seeded at low density (200–4000 cells per well) after initial optimisation in a six-well tissue culture-treated plate (Falcon). Twenty-four hours post seeding, media was replaced, and the inhibitor was added. Cells were left to grow into colonies between 7 and 12 days, depending on the cell line. For analysis, the media was removed, and the cells were fixed with 10% (w/v) formalin for 10 min. Colonies were stained with crystal violet (Sigma-Aldrich, 0.5% [w/v] in 20% [v/v] MeOH) for 10 min and washed thrice with distilled H2O. Plates were imaged using the ChemiDoc imaging system (Bio-Rad) and analysed using the ImageJ ColonyArea plugin as described previously (Guzmán et al, [2014]).

Test [1] deals with T1, USP9X Δβ catalytic domain.
T1 construct: His/SUMO (pOPIN-S vector) (N, cleaved yes); made in house; host or cells: E. coli BL21
In words: Ub-PA suicide probe assay, USP9X Δβ. The format is biochemical, human. The settings on record: 50 µM compound. An excerpt: An expression construct for the USP9X catalytic domain (aa 1551–1970, […]: Q93008-1), was codon optimised for bacterial expression, synthesised in gBlock format (Integrated DNA Technologies) and cloned into the pOPIN-S vector (Berrow et al, [2007]), which was digested with KpnI and HindIII using In-Fusion™ HD cloning (Takara Clontech). For SPR, constructs were ordered with a GGS linker followed by a C-terminal AviTag™ (aa sequence: […]) and were cloned as above. For the USP9X Δβ catalytic domain a deletion construct ΔE1924-K1943 and for USP9X/USP24 chimera, a construct with USP9X Y1757-A1766 replaced with the USP24 (NCBI Reference Sequence: NP_056121) aa motif […] was used. All constructs were confirmed by Sanger sequencing (AGRF).
For inhibitor activity assays, USP9X catalytic domain (di-ubiquitin cleavage assay: 750 nM, ubiquitin-probe assays: 2.5 µM) was pre-incubated with USP9X inhibitors for 30 min at ambient temperature and subsequently mixed with di-ubiquitin (final concentration 2 µM) in assay buffer (25 mM Tris [pH 8.0], 150 mM NaCl, 10 mM DTT) at pH 8.0 or was mixed with ubiquitin-propargylamide (Ub-PA)/ubiquitin-vinyl sulfonate (Ub-VS) probes at a final concentration of 10 µM in assay buffer. […]

The next test concerns SK-MEL-2 cells. Briefly: Lattice light sheet imaging of mitosis, SK-MEL-2. The settings on record: 15 µM, imaged 24-48 h. The format is cell-based, human. The procedure:
MDA-MB-231, MiaPaca2, HMEC-1, SK-MEL-2 and UO-31 cells were seeded at 2–15 × 10^4 cells/mL in 8-well glass µ-slides (ibidi). […] SPY650-Tubulin, SPY555-DNA (both Spirochrome, Inc.), and Annexin V FITC (Sigma-Aldrich) were added at a final concentration of 1 in 1000. Cells were left to grow for 24 h before time-lapse live-cell data were acquired using a Lattice Light Sheet 7 (Zeiss). […] Aberration correction was set to a value of 170 to minimise aberrations as determined by imaging the Point Spread Function using 100 nm fluorescent microspheres. Data were collected with a frame time of 10 ms and a z step of 0.4 μm with 834 frames per 290 μm by 290 μm. Individual regions were imaged in parallel across six wells of the eight-well chamber slide. Data are presented as Maximum Intensity Projections (MIPs), and these MIPs were used for all downstream analysis. Tile regions were imaged for 24 h with 10 min intervals at 37 °C, 5% CO2. Analysis was performed using the MIPs of the different full fields of cells over the 24–48 h time period. Mitosis and mitosis arrest were classified through a combination of automated image analysis and manual validation. […] Small erroneous detected spots were further removed through a manually adjusted size filter. […] The mean intensity of all tracks was then measured to determine mitosis and mitosis arrest. […]

The next test has as its system T2, USP9X.
T2 construct: endogenous in cells; host or cells: MCF-7 cell lysate
In words: DUB IP-MS in MCF-7 cell lysates, USP9X. As to conditions: 50 µM. In kind it is biochemical, human. The procedure:
MCF-7 cells have been profiled for active DUBs previously (Pinto-Fernández et al, [2019]). Lysates were generated as described by others (Turnbull et al, [2017]) using 30 s freeze-thaw cycles (thrice) in lysis buffer (50 mM Tris [pH 7.4], 5 mM MgCl2 × 6 H2O, 0.5 mM EDTA [pH 8.0], 250 mM sucrose and 1 mM DTT) at pH 7.5. […] A pre-treatment of cell lysates with 0.5 µg Ub-VS was included for a baseline DUB response to the Ub-VS probe. 0.1 µg 3X-FLAG-Ub-VS probe was added to samples and incubated for 5 min at 37 °C. […] Samples were washed thrice with lysis buffer and eluted from the resin with lysis buffer supplemented with 1% (w/v) SDS following a 10 min incubation. Two consecutive elutions were pooled, and samples were stored at −80 °C until processing.
DNA was hydrolysed with the addition of 2 µL neat TFA, and lysates were neutralised to pH 8.5 by the addition of 1 M Tris-HCl as previously described (Dagley et al, [2019]). Protein concentration was determined using Pierce™ BCA Protein Assay Kit (Thermo Fisher Scientific) following the manufacturer’s instructions. For DUB IP-MS, samples were processed using S-Trap spin columns (Profiti) by following the manufacturer’s instructions. […]

For another test, the system named is MDA-MB-468 cells. In words: Colony formation assay, MDA-MB-468. The format is cell-based, human. As to conditions: 10 µM, 7–12 days. The protocol: as §1

On to `Cc1[nH]c2ccc(C(=O)N3CCN(S(=O)(=O)c4ccc5c(c4)OCCO5)CC3)cc2c1C` [WEHI-092], for which, in the test on DLD-1 cells, the “clonogenic potential, DLD-1” value is reported as “strong decrease in proliferative capacity”. Also, the “modification of USP9X Δβ with Ub-PA probe” value in test [1] is reported as “unable to be modified by the probe”. In addition, the “cell division phenotype, SK-MEL-2” value with SK-MEL-2 cells is recorded as “significant defects in cell division”. For the same molecule, the “inhibition of USP9X in MCF-7 lysate (DUB IP-MS)” value with USP9X was “inhibited all active USP9X in the lysate”. For the same molecule, the “clonogenic potential, MDA-MB-468” value with MDA-MB-468 cells is on record as “strong decrease in proliferative capacity”.

These data come from paper PMC13144739, “Global analysis of cancer cell responses to USP9X inhibition” (The EMBO Journal, 2026).
